Patent US20230085307A1, “PYRIDAZINONE COMPOUND AND HERBICIDE” (NISSAN CHEMICAL CORPORATION, priority 2019, published 2023)

Legend:
persian speedwell = assay: Test Example 5: herbicidal effect by foliage application, plastic box (Table 20, symbol R); assay type: in vivo, Persian speedwell (Veronica persica); conditions: foliage application after 14-day growth, evaluated three weeks after application; for herbicidal effect on R: persian speedwell (evaluation grade 0-5): 320 g/ha; for Herbicidal effect by foliage application, R: persian speedwell: amount of applied herbicide 320 g/ha
Summary of the method: (§1)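 Plants were sown into sterilized diluvial soil under about 1.5 cm cover and kept in a greenhouse at 25° C. to 30° C. Fourteen days on, foliage received an even spray of the diluted emulsion. Herbicidal or crop effect was judged three weeks afterwards.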

barnyard grass [1] = assay: Test Example 5: herbicidal effect by foliage application, plastic box (Table 20, symbol H); assay type: in vivo, barnyard grass (Echinochloa crus-galli); conditions: foliage application after 14-day growth, evaluated three weeks after application; for herbicidal effect on H: barnyard grass (evaluation grade 0-5): 320 g/ha; for Herbicidal effect by foliage application, H: barnyard grass: amount of applied herbicide 320 g/ha
Summary of the method: as §1

Chinese sprangletop = assay: Test Example 3: herbicidal effect by foliage application, Wagner pot (Table 18, symbol D); assay type: in vivo, chinese sprangletop (Leptochloa chinensis); conditions: 320 g/ha
Summary of the method: (§2)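 Plants were sown in alluvial soil held under 0.1–0.5 cm standing water and grown 14 days in a greenhouse at 25–30 °C. An emulsifiable formulation, water-diluted to the set dose, was then sprayed onto the foliage, and effects were scored three weeks later using previously defined criteria.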

lambsquarters = assay: Test Example 5: herbicidal effect by foliage application, plastic box (Table 20, symbol O); assay type: in vivo, lambsquarters (Chenopodium album); conditions: foliage application after 14-day growth, evaluated three weeks after application; for herbicidal effect on O: lambsquarters (evaluation grade 0-5): 320 g/ha; for Herbicidal effect by foliage application, O: lambsquarters: amount of applied herbicide 320 g/ha
Summary of the method: as §1

rice flat sedge = assay: Test Example 3: herbicidal effect by foliage application, Wagner pot (Table 18, symbol E); assay type: in vivo, rice flat sedge (Cyperus iria); conditions: 320 g/ha
Summary of the method: as §2

southern crabgrass = assay: Test Example 5: herbicidal effect by foliage application, plastic box (Table 20, symbol F); assay type: in vivo, southern crabgrass (Digitaria ciliaris); conditions: foliage application after 14-day growth, evaluated three weeks after application; for herbicidal effect on F: southern crabgrass (evaluation grade 0-5): 320 g/ha; for Herbicidal effect by foliage application, F: southern crabgrass: amount of applied herbicide 320 g/ha
Summary of the method: as §1

chickweed = assay: Test Example 5: herbicidal effect by foliage application, plastic box (Table 20, symbol P); assay type: in vivo, common chickweed (Stellaria media); conditions: foliage application after 14-day growth, evaluated three weeks after application; for herbicidal effect on P: chickweed (evaluation grade 0-5): 320 g/ha; for Herbicidal effect by foliage application, P: chickweed: amount of applied herbicide 320 g/ha
Summary of the method: as §1

barnyard grass [2] = assay: Test Example 3: herbicidal effect by foliage application, Wagner pot (Table 18, symbol H); assay type: in vivo, barnyard grass (Echinochloa crus-galli); conditions: 320 g/ha
Summary of the method: as §2

green foxtail = assay: Test Example 5: herbicidal effect by foliage application, plastic box (Table 20, symbol G); assay type: in vivo, green foxtail (Setaria viridis); conditions: foliage application after 14-day growth, evaluated three weeks after application; for herbicidal effect on G: green foxtail (evaluation grade 0-5): 320 g/ha; for Herbicidal effect by foliage application, G: green foxtail: amount of applied herbicide 320 g/ha
Summary of the method: as §1

redroot pigweed = assay: Test Example 5: herbicidal effect by foliage application, plastic box (Table 20, symbol N); assay type: in vivo, redroot pigweed (Amaranthus retroflexus); conditions: foliage application after 14-day growth, evaluated three weeks after application; for herbicidal effect on N: redroot pigweed (evaluation grade 0-5): 320 g/ha; for Herbicidal effect by foliage application, N: redroot pigweed: amount of applied herbicide 320 g/ha
Summary of the method: as §1

Italian ryegrass = assay: Test Example 5: herbicidal effect by foliage application, plastic box (Table 20, symbol K); assay type: in vivo, Italian ryegrass (Lolium multiflorum); conditions: foliage application after 14-day growth, evaluated three weeks after application; for herbicidal effect on K: Italian ryegrass (evaluation grade 0-5): 320 g/ha; for Herbicidal effect by foliage application, K: Italian ryegrass: amount of applied herbicide 320 g/ha
Summary of the method: as §1

velvetleaf = assay: Test Example 5: herbicidal effect by foliage application, plastic box (Table 20, symbol M); assay type: in vivo, velvetleaf (Abutilon theophrasti); conditions: foliage application after 14-day growth, evaluated three weeks after application; for herbicidal effect on M: velvetleaf (evaluation grade 0-5): 320 g/ha; for Herbicidal effect by foliage application, M: velvetleaf: amount of applied herbicide 320 g/ha
Summary of the method: as §1

wild oat = assay: Test Example 5: herbicidal effect by foliage application, plastic box (Table 20, symbol I); assay type: in vivo, wild oat (Avena fatua); conditions: foliage application after 14-day growth, evaluated three weeks after application; for herbicidal effect on I: wild oat (evaluation grade 0-5): 320 g/ha; for Herbicidal effect by foliage application, I: wild oat: amount of applied herbicide 320 g/ha
Summary of the method: as §1

blackgrass = assay: Test Example 5: herbicidal effect by foliage application, plastic box (Table 20, symbol J); assay type: in vivo, blackgrass (Alopecurus myosuroides); conditions: foliage application after 14-day growth, evaluated three weeks after application; for herbicidal effect on J: blackgrass (evaluation grade 0-5): 320 g/ha; for Herbicidal effect by foliage application, J: blackgrass: amount of applied herbicide 320 g/ha
Summary of the method: as §1

windgrass = assay: Test Example 5: herbicidal effect by foliage application, plastic box (Table 20, symbol L); assay type: in vivo, windgrass (Apera spica-venti); conditions: foliage application after 14-day growth, evaluated three weeks after application; for herbicidal effect on L: windgrass (evaluation grade 0-5): 320 g/ha; for Herbicidal effect by foliage application, L: windgrass: amount of applied herbicide 320 g/ha
Summary of the method: as §1

| Structure (SMILES) | herbicidal effect on R: persian speedwell (evaluation grade 0-5) (persian speedwell) | herbicidal effect on H: barnyard grass (evaluation grade 0-5) (barnyard grass [1]) | herbicidal effect on Chinese sprangletop (D) (Chinese sprangletop) | herbicidal effect on O: lambsquarters (evaluation grade 0-5) (lambsquarters) | herbicidal effect on rice flat sedge (E) (rice flat sedge) | herbicidal effect on F: southern crabgrass (evaluation grade 0-5) (southern crabgrass) | herbicidal effect on P: chickweed (evaluation grade 0-5) (chickweed) | herbicidal effect on barnyard grass (H) (barnyard grass [2]) | herbicidal effect on G: green foxtail (evaluation grade 0-5) (green foxtail) | herbicidal effect on N: redroot pigweed (evaluation grade 0-5) (redroot pigweed) | herbicidal effect on K: Italian ryegrass (evaluation grade 0-5) (Italian ryegrass) | herbicidal effect on M: velvetleaf (evaluation grade 0-5) (velvetleaf) | herbicidal effect on I: wild oat (evaluation grade 0-5) (wild oat) | herbicidal effect on J: blackgrass (evaluation grade 0-5) (blackgrass) | herbicidal effect on L: windgrass (evaluation grade 0-5) (windgrass) | Herbicidal effect by foliage application, R: persian speedwell (persian speedwell) | Herbicidal effect by foliage application, H: barnyard grass (barnyard grass [1]) | Herbicidal effect by foliage application, O: lambsquarters (lambsquarters) | Herbicidal effect by foliage application, F: southern crabgrass (southern crabgrass) | Herbicidal effect by foliage application, P: chickweed (chickweed) | other results |
| --- | --- | --- | --- | --- | --- | --- | --- | --- | --- | --- | --- | --- | --- | --- | --- | --- | --- | --- | --- | --- | --- |
| Cc1nn(C)c(=O)c(-c2c(-c3ccc(C(F)(F)F)cc3F)sc3c(Cl)cccc23)c1O [4-037] | 0 (Herbicidal rate of 5% or less (almost no effect)) | 0 (Herbicidal rate of 5% or less (almost no effect)) | 1 (Herbicidal rate of 5% or more and less than 20%) | 5 (Herbicidal rate of 90% or more (almost completely withered)) | 0 (Herbicidal rate of 5% or less (almost no effect)) | 0 (Herbicidal rate of 5% or less (almost no effect)) | 4 (Herbicidal rate of 70% or more and less than 90%) | 3 (Herbicidal rate of 40% or more and less than 70%) | 2 (Herbicidal rate of 20% or more and less than 40%) | 5 (Herbicidal rate of 90% or more (almost completely withered)) | 0 (Herbicidal rate of 5% or less (almost no effect)) | 5 (Herbicidal rate of 90% or more (almost completely withered)) | 0 (Herbicidal rate of 5% or less (almost no effect)) | 0 (Herbicidal rate of 5% or less (almost no effect)) | 5 (Herbicidal rate of 90% or more (almost completely withered)) |  |  |  |  |  |  |
| Cc1ccccc1-c1sc2c(Cl)cccc2c1-c1c(O)c(C)nn(C)c1=O [4-060] | 0 (Herbicidal rate of 5% or less (almost no effect)) | 0 (Herbicidal rate of 5% or less (almost no effect)) | 1 (Herbicidal rate of 5% or more and less than 20%) | 0 (Herbicidal rate of 5% or less (almost no effect)) | 3 (Herbicidal rate of 40% or more and less than 70%) | 0 (Herbicidal rate of 5% or less (almost no effect)) | 4 (Herbicidal rate of 70% or more and less than 90%) | 3 (Herbicidal rate of 40% or more and less than 70%) | 0 (Herbicidal rate of 5% or less (almost no effect)) | 2 (Herbicidal rate of 20% or more and less than 40%) | 0 (Herbicidal rate of 5% or less (almost no effect)) | 0 (Herbicidal rate of 5% or less (almost no effect)) | 0 (Herbicidal rate of 5% or less (almost no effect)) | 0 (Herbicidal rate of 5% or less (almost no effect)) | 4 (Herbicidal rate of 70% or more and less than 90%) |  |  |  |  |  |  |
| CCCCOc1cccc(-c2sc3c(Cl)cccc3c2-c2c(OC(=O)CCC)c(C)nn(C)c2=O)c1 [4-069] | 4 (Herbicidal rate of 70% or more and less than 90%) | 0 (Herbicidal rate of 5% or less (almost no effect)) | 3 (Herbicidal rate of 40% or more and less than 70%) | 0 (Herbicidal rate of 5% or less (almost no effect)) | 3 (Herbicidal rate of 40% or more and less than 70%) | 0 (Herbicidal rate of 5% or less (almost no effect)) | 4 (Herbicidal rate of 70% or more and less than 90%) | 4 (Herbicidal rate of 70% or more and less than 90%) | 0 (Herbicidal rate of 5% or less (almost no effect)) | 0 (Herbicidal rate of 5% or less (almost no effect)) | 0 (Herbicidal rate of 5% or less (almost no effect)) | 0 (Herbicidal rate of 5% or less (almost no effect)) | 0 (Herbicidal rate of 5% or less (almost no effect)) | 0 (Herbicidal rate of 5% or less (almost no effect)) | 0 (Herbicidal rate of 5% or less (almost no effect)) |  |  |  |  |  |  |
| CCCC(=O)Oc1c(C)nn(C)c(=O)c1-c1c(-c2ccccc2OCc2ccccc2)sc2c(Cl)cccc12 [4-085] |  |  | 0 (Herbicidal rate of 5% or less (almost no effect)) |  | 2 (Herbicidal rate of 20% or more and less than 40%) |  |  | 2 (Herbicidal rate of 20% or more and less than 40%) |  |  |  |  |  |  |  | 2 (Herbicidal rate of 20% or more and less than 40%) | 3 (Herbicidal rate of 40% or more and less than 70%) | 0 (Herbicidal rate of 5% or less (almost no effect)) | 0 (Herbicidal rate of 5% or less (almost no effect)) | 4 (Herbicidal rate of 70% or more and less than 90%) | Herbicidal effect by foliage application, G: green foxtail (green foxtail): 0 (Herbicidal rate of 5% or less (almost no effect)); Herbicidal effect by foliage application, N: redroot pigweed (redroot pigweed): 0 (Herbicidal rate of 5% or less (almost no effect)); Herbicidal effect by foliage application, K: Italian ryegrass (Italian ryegrass): 0 (Herbicidal rate of 5% or less (almost no effect)); Herbicidal effect by foliage application, M: velvetleaf (velvetleaf): 0 (Herbicidal rate of 5% or less (almost no effect)); Herbicidal effect by foliage application, I: wild oat (wild oat): 0 (Herbicidal rate of 5% or less (almost no effect)); Herbicidal effect by foliage application, J: blackgrass (blackgrass): 0 (Herbicidal rate of 5% or less (almost no effect)); Herbicidal effect by foliage application, L: windgrass (windgrass): 0 (Herbicidal rate of 5% or less (almost no effect)) |
| CCSc1ccccc1-c1sc2c(Cl)cccc2c1-c1c(O)c(C)nn(C)c1=O [4-090] |  |  | 3 (Herbicidal rate of 40% or more and less than 70%) |  | 2 (Herbicidal rate of 20% or more and less than 40%) |  |  | 5 (Herbicidal rate of 90% or more (almost completely withered)) |  |  |  |  |  |  |  | 1 (Herbicidal rate of 5% or more and less than 20%) | 3 (Herbicidal rate of 40% or more and less than 70%) | 0 (Herbicidal rate of 5% or less (almost no effect)) | 4 (Herbicidal rate of 70% or more and less than 90%) | 0 (Herbicidal rate of 5% or less (almost no effect)) | Herbicidal effect by foliage application, G: green foxtail (green foxtail): 3 (Herbicidal rate of 40% or more and less than 70%); Herbicidal effect by foliage application, N: redroot pigweed (redroot pigweed): 3 (Herbicidal rate of 40% or more and less than 70%); Herbicidal effect by foliage application, K: Italian ryegrass (Italian ryegrass): 0 (Herbicidal rate of 5% or less (almost no effect)); Herbicidal effect by foliage application, M: velvetleaf (velvetleaf): 0 (Herbicidal rate of 5% or less (almost no effect)); Herbicidal effect by foliage application, I: wild oat (wild oat): 0 (Herbicidal rate of 5% or less (almost no effect)); Herbicidal effect by foliage application, J: blackgrass (blackgrass): 0 (Herbicidal rate of 5% or less (almost no effect)); Herbicidal effect by foliage application, L: windgrass (windgrass): 0 (Herbicidal rate of 5% or less (almost no effect)) |
